Data from patent publication US20260027116A1, “Methods of Treating Chronic Graft-Versus-Host Disease Following Allogeneic Hematopoietic Stem Cell Transplantation” (Kadmon Corporation, LLC, priority 2022, published 2026).

System: lung function
Experiment: Example 1: percent predicted HGB corrected DLco change from baseline
Format: in vivo, human
Details: mean (SD)
Description: Change From Baseline in Percent Predicted Hemoglobin (HGB) Corrected Diffusing Capacity of Lung for Carbon Monoxide (DLco) at Each Specified Time Points. DLco is a measurement of the ability of the lungs to transfer gases from the air to the blood. Change from baseline in diffusing capacity of the lung for carbon monoxide (percent predicted hemoglobin level corrected) was reported for this measure. Baseline value was defined as valid and last non-missing value obtained within 28 days prior to participant receiving first study medication. EOT visit was performed within 3 days after the participant's last dose of study drug. […] Analysis was performed on mITT population. Here, ‘number analyzed’=participants with available data for each specified category. Here, ‘O’ in the number analyzed field signifies that none of the participants were available for the analysis at the specified time points.

## CC(C)NC(=O)COc1cccc(-c2nc(Nc3ccc4[nH]ncc4c3)c3ccccc3n2)c1 [Belumosudil, 2-{3-[4-(1H-indazol-5-ylamino)-2-quinazolinyl]phenoxy}-N-(propan-2-yl) acetamide]
Cohort 1: 200 mg QD, Cycle 3, Day 1
  Change From Baseline in Percent Predicted Hemoglobin (HGB) Corrected Diffusing Capacity of Lung for Carbon Monoxide (DLco): 4.545 (22.991) Percent Predicted HGB Corrected DLco
Cohort 1: 200 mg QD, Cycle 5, Day 1
  Change From Baseline in Percent Predicted Hemoglobin (HGB) Corrected Diffusing Capacity of Lung for Carbon Monoxide (DLco): 4.635 (23.989) Percent Predicted HGB Corrected DLco
Cohort 1: 200 mg QD, Cycle 7, Day 1
  Change From Baseline in Percent Predicted Hemoglobin (HGB) Corrected Diffusing Capacity of Lung for Carbon Monoxide (DLco): 1.521 (19.836) Percent Predicted HGB Corrected DLco
Cohort 1: 200 mg QD, Cycle 9, Day 1
  Change From Baseline in Percent Predicted Hemoglobin (HGB) Corrected Diffusing Capacity of Lung for Carbon Monoxide (DLco): −4.514 (7.401) Percent Predicted HGB Corrected DLco
Cohort 1: 200 mg QD, Cycle 11, Day 1
  Change From Baseline in Percent Predicted Hemoglobin (HGB) Corrected Diffusing Capacity of Lung for Carbon Monoxide (DLco): −0.625 (7.262) Percent Predicted HGB Corrected DLco
Cohort 1: 200 mg QD, Cycle 12, Day 1
  Change From Baseline in Percent Predicted Hemoglobin (HGB) Corrected Diffusing Capacity of Lung for Carbon Monoxide (DLco): 0.531 (—) Percent Predicted HGB Corrected DLco
Cohort 1: 200 mg QD, Cycle 13, Day 1
  Change From Baseline in Percent Predicted Hemoglobin (HGB) Corrected Diffusing Capacity of Lung for Carbon Monoxide (DLco): −5.548 (12.175) Percent Predicted HGB Corrected DLco
Cohort 1: 200 mg QD, Cycle 14, Day 1
  Change From Baseline in Percent Predicted Hemoglobin (HGB) Corrected Diffusing Capacity of Lung for Carbon Monoxide (DLco): 12.916 (—) Percent Predicted HGB Corrected DLco
Cohort 1: 200 mg QD, Cycle 15, Day 1
  Change From Baseline in Percent Predicted Hemoglobin (HGB) Corrected Diffusing Capacity of Lung for Carbon Monoxide (DLco): 0.228 (15.731) Percent Predicted HGB Corrected DLco
Cohort 1: 200 mg QD, Cycle 16, Day 1
  Change From Baseline in Percent Predicted Hemoglobin (HGB) Corrected Diffusing Capacity of Lung for Carbon Monoxide (DLco): 48.465 (—) Percent Predicted HGB Corrected DLco
Cohort 1: 200 mg QD, Cycle 17, Day 1
  Change From Baseline in Percent Predicted Hemoglobin (HGB) Corrected Diffusing Capacity of Lung for Carbon Monoxide (DLco): −1.018 (9.226) Percent Predicted HGB Corrected DLco
Cohort 1: 200 mg QD, Cycle 19, Day 1
  Change From Baseline in Percent Predicted Hemoglobin (HGB) Corrected Diffusing Capacity of Lung for Carbon Monoxide (DLco): −2.293 (5.763) Percent Predicted HGB Corrected DLco
Cohort 1: 200 mg QD, Cycle 21, Day 1
  Change From Baseline in Percent Predicted Hemoglobin (HGB) Corrected Diffusing Capacity of Lung for Carbon Monoxide (DLco): −2.778 (8.187) Percent Predicted HGB Corrected DLco
Cohort 1: 200 mg QD, Cycle 23, Day 1
  Change From Baseline in Percent Predicted Hemoglobin (HGB) Corrected Diffusing Capacity of Lung for Carbon Monoxide (DLco): 0.354 (1.844) Percent Predicted HGB Corrected DLco
Cohort 1: 200 mg QD, Cycle 24, Day 1
  Change From Baseline in Percent Predicted Hemoglobin (HGB) Corrected Diffusing Capacity of Lung for Carbon Monoxide (DLco): 6.945 (—) Percent Predicted HGB Corrected DLco
Cohort 1: 200 mg QD, Cycle 25, Day 1
  Change From Baseline in Percent Predicted Hemoglobin (HGB) Corrected Diffusing Capacity of Lung for Carbon Monoxide (DLco): −4.461 (19.865) Percent Predicted HGB Corrected DLco
Cohort 1: 200 mg QD, Cycle 26, Day 1
  Change From Baseline in Percent Predicted Hemoglobin (HGB) Corrected Diffusing Capacity of Lung for Carbon Monoxide (DLco): 4.715 (—) Percent Predicted HGB Corrected DLco
Cohort 1: 200 mg QD, Cycle 27, Day 1
  Change From Baseline in Percent Predicted Hemoglobin (HGB) Corrected Diffusing Capacity of Lung for Carbon Monoxide (DLco): −8.047 (24.788) Percent Predicted HGB Corrected DLco
Cohort 1: 200 mg QD, Cycle 29, Day 1
  Change From Baseline in Percent Predicted Hemoglobin (HGB) Corrected Diffusing Capacity of Lung for Carbon Monoxide (DLco): −6.701 (1.671) Percent Predicted HGB Corrected DLco
Cohort 1: 200 mg QD, Cycle 31, Day 1
  Change From Baseline in Percent Predicted Hemoglobin (HGB) Corrected Diffusing Capacity of Lung for Carbon Monoxide (DLco): 2.343 (20.988) Percent Predicted HGB Corrected DLco
Cohort 1: 200 mg QD, Cycle 32, Day 1
  Change From Baseline in Percent Predicted Hemoglobin (HGB) Corrected Diffusing Capacity of Lung for Carbon Monoxide (DLco): 5.586 (—) Percent Predicted HGB Corrected DLco
Cohort 1: 200 mg QD, Cycle 33, Day 1
  Change From Baseline in Percent Predicted Hemoglobin (HGB) Corrected Diffusing Capacity of Lung for Carbon Monoxide (DLco): 9.901 (9.954) Percent Predicted HGB Corrected DLco
Cohort 1: 200 mg QD, Cycle 34, Day 1
  Change From Baseline in Percent Predicted Hemoglobin (HGB) Corrected Diffusing Capacity of Lung for Carbon Monoxide (DLco): 4.863 (—) Percent Predicted HGB Corrected DLco
Cohort 1: 200 mg QD, Cycle 35, Day 1
  Change From Baseline in Percent Predicted Hemoglobin (HGB) Corrected Diffusing Capacity of Lung for Carbon Monoxide (DLco): 13.867 (1.309) Percent Predicted HGB Corrected DLco
Cohort 1: 200 mg QD, Cycle 36, Day 1
  Change From Baseline in Percent Predicted Hemoglobin (HGB) Corrected Diffusing Capacity of Lung for Carbon Monoxide (DLco): 4.166 (—) Percent Predicted HGB Corrected DLco
Cohort 1: 200 mg QD, Cycle 37, Day 1
  Change From Baseline in Percent Predicted Hemoglobin (HGB) Corrected Diffusing Capacity of Lung for Carbon Monoxide (DLco): 9.306 (—) Percent Predicted HGB Corrected DLco
Cohort 1: 200 mg QD, Cycle 39, Day 1
  Change From Baseline in Percent Predicted Hemoglobin (HGB) Corrected Diffusing Capacity of Lung for Carbon Monoxide (DLco): 14.754 (0.649) Percent Predicted HGB Corrected DLco
Cohort 1: 200 mg QD, Cycle 40, Day 1
  Change From Baseline in Percent Predicted Hemoglobin (HGB) Corrected Diffusing Capacity of Lung for Carbon Monoxide (DLco): 5.586 (—) Percent Predicted HGB Corrected DLco
Cohort 1: 200 mg QD, Cycle 41, Day 1
  Change From Baseline in Percent Predicted Hemoglobin (HGB) Corrected Diffusing Capacity of Lung for Carbon Monoxide (DLco): 22.884 (—) Percent Predicted HGB Corrected DLco
Cohort 1: 200 mg QD, Cycle 43, Day 1
  Change From Baseline in Percent Predicted Hemoglobin (HGB) Corrected Diffusing Capacity of Lung for Carbon Monoxide (DLco): 15.213 (—) Percent Predicted HGB Corrected DLco
Cohort 1: 200 mg QD, Cycle 49, Day 1
  Change From Baseline in Percent Predicted Hemoglobin (HGB) Corrected Diffusing Capacity of Lung for Carbon Monoxide (DLco): −3.599 (—) Percent Predicted HGB Corrected DLco
Cohort 1: 200 mg QD, Cycle 51, Day 1
  Change From Baseline in Percent Predicted Hemoglobin (HGB) Corrected Diffusing Capacity of Lung for Carbon Monoxide (DLco): 11.734 (—) Percent Predicted HGB Corrected DLco
Cohort 1: 200 mg QD, Cycle 53, Day 1
  Change From Baseline in Percent Predicted Hemoglobin (HGB) Corrected Diffusing Capacity of Lung for Carbon Monoxide (DLco): 10.292 (—) Percent Predicted HGB Corrected DLco
Cohort 1: 200 mg QD, Cycle 55, Day 1
  Change From Baseline in Percent Predicted Hemoglobin (HGB) Corrected Diffusing Capacity of Lung for Carbon Monoxide (DLco): 16.550 (—) Percent Predicted HGB Corrected DLco
Cohort 1: 200 mg QD, Cycle 61, Day 1
  Change From Baseline in Percent Predicted Hemoglobin (HGB) Corrected Diffusing Capacity of Lung for Carbon Monoxide (DLco): 17.682 (—) Percent Predicted HGB Corrected DLco
Cohort 1: 200 mg QD, Cycle 62, Day 1
  Change From Baseline in Percent Predicted Hemoglobin (HGB) Corrected Diffusing Capacity of Lung for Carbon Monoxide (DLco): 4.170 (—) Percent Predicted HGB Corrected DLco
Cohort 1: 200 mg QD, Cycle 63, Day 1
  Change From Baseline in Percent Predicted Hemoglobin (HGB) Corrected Diffusing Capacity of Lung for Carbon Monoxide (DLco): 26.215 (—) Percent Predicted HGB Corrected DLco
Cohort 1: 200 mg QD, Cycle 67, Day 1
  Change From Baseline in Percent Predicted Hemoglobin (HGB) Corrected Diffusing Capacity of Lung for Carbon Monoxide (DLco): 41.384 (—) Percent Predicted HGB Corrected DLco
Cohort 1: 200 mg QD, EOT
  Change From Baseline in Percent Predicted Hemoglobin (HGB) Corrected Diffusing Capacity of Lung for Carbon Monoxide (DLco): −1.962 (11.426) Percent Predicted HGB Corrected DLco
Cohort 2: 200 mg BID, Cycle 3, Day 1
  Change From Baseline in Percent Predicted Hemoglobin (HGB) Corrected Diffusing Capacity of Lung for Carbon Monoxide (DLco): −0.638 (7.059) Percent Predicted HGB Corrected DLco
Cohort 2: 200 mg BID, Cycle 5, Day 1
  Change From Baseline in Percent Predicted Hemoglobin (HGB) Corrected Diffusing Capacity of Lung for Carbon Monoxide (DLco): −4.462 (23.621) Percent Predicted HGB Corrected DLco
Cohort 2: 200 mg BID, Cycle 7, Day 1
  Change From Baseline in Percent Predicted Hemoglobin (HGB) Corrected Diffusing Capacity of Lung for Carbon Monoxide (DLco): 6.184 (9.436) Percent Predicted HGB Corrected DLco
Cohort 2: 200 mg BID, Cycle 8, Day 1
  Change From Baseline in Percent Predicted Hemoglobin (HGB) Corrected Diffusing Capacity of Lung for Carbon Monoxide (DLco): 3.554 (—) Percent Predicted HGB Corrected DLco
Cohort 2: 200 mg BID, Cycle 9, Day 1
  Change From Baseline in Percent Predicted Hemoglobin (HGB) Corrected Diffusing Capacity of Lung for Carbon Monoxide (DLco): 2.570 (8.902) Percent Predicted HGB Corrected DLco
Cohort 2: 200 mg BID, Cycle 10, Day 1
  Change From Baseline in Percent Predicted Hemoglobin (HGB) Corrected Diffusing Capacity of Lung for Carbon Monoxide (DLco): 4.343 (3.144) Percent Predicted HGB Corrected DLco
Cohort 2: 200 mg BID, Cycle 11, Day 1
  Change From Baseline in Percent Predicted Hemoglobin (HGB) Corrected Diffusing Capacity of Lung for Carbon Monoxide (DLco): 6.582 (10.695) Percent Predicted HGB Corrected DLco
Cohort 2: 200 mg BID, Cycle 12, Day 1
  Change From Baseline in Percent Predicted Hemoglobin (HGB) Corrected Diffusing Capacity of Lung for Carbon Monoxide (DLco): 4.076 (—) Percent Predicted HGB Corrected DLco
Cohort 2: 200 mg BID, Cycle 13, Day 1
  Change From Baseline in Percent Predicted Hemoglobin (HGB) Corrected Diffusing Capacity of Lung for Carbon Monoxide (DLco): 1.882 (7.522) Percent Predicted HGB Corrected DLco
Cohort 2: 200 mg BID, Cycle 14, Day 1
  Change From Baseline in Percent Predicted Hemoglobin (HGB) Corrected Diffusing Capacity of Lung for Carbon Monoxide (DLco): 0.358 (—) Percent Predicted HGB Corrected DLco
Cohort 2: 200 mg BID, Cycle 15, Day 1
  Change From Baseline in Percent Predicted Hemoglobin (HGB) Corrected Diffusing Capacity of Lung for Carbon Monoxide (DLco): 1.125 (5.927) Percent Predicted HGB Corrected DLco
